Test results reported in US20250257075A1, “MACROCYCLIC INHIBITORS OF KRAS FOR THE TREATMENT OF CANCER” (Hoffmann-La Roche Inc., priority 2022, published 2025).

How the values were obtained:
[1] = tested on: NCI-H358 cells (KRAS G12C); experiment: Cell viability assay, G12C; type: cell-based, human; settings: Homo sapiens; NCI-H358, 72 hrs, Cell Counting Kit-8
Method: (§1) The purpose of this cellular assay was to determine the effects of test compounds on the proliferation of human cancer cell lines NCI-H358 (ATCC-CRL5807) cells, AGS (ATCC-CRL-1739) cells, SW620 (ATCC-CCL-227) over a 3-day treatment period by quantifying the amount of NADPH present at endpoint using Cell Counting Kit-8.
(§2) Cells were seeded at 5,000 cells/well (NCI-H358), 2,000 cells/well (AGS) 2,000 cells/well (SW620) in 96-well assay plates (Corning-3699) and incubated overnight. On the day of the assay, diluted compounds were then added in a final concentration of 0.5% DMSO. After 72 hrs incubation, a tenth of the volume of cell counting kit 8 (Dnjindo-CK04) was added into each well. Read the signal (OD450 minus OD650) using EnVision after 2 hrs incubation. IC50 was determined by fitting a 4-parameter sigmoidal concentration response model.

AGS cells (KRAS G12D) = experiment: Cell viability assay, G12D; type: cell-based, human; settings: Homo sapiens, 72 hrs, Cell Counting Kit-8
Method: as §1, §2

SW620 cells (KRAS G12V) = experiment: Cell viability assay, G12V; type: cell-based, human; settings: Homo sapiens, SW-620; SW620, 72 hrs, Cell Counting Kit-8
Method: as §1, §2

KRAS G12C-BRAF complex [2] = molecular target: T1, KRAS G12C-BRAF complex (Homo sapiens, UniProt P01116+P62937, G12C); experiment: KRAS G12C-BRAF NanoBit assay in HEK293 cells; type: cell-based; settings: HEK293 stable cell pool, 3 hours of incubation
T1 construct: expressed in transfected cells
T1 sequence (P01116 1-188 isoform P01116-2 G12C): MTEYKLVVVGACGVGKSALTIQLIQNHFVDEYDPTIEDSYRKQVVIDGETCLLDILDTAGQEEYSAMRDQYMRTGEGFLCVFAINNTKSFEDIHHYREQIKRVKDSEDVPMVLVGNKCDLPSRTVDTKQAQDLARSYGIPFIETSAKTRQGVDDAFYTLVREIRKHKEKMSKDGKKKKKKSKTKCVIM
T1 sequence (P62937 whole entry): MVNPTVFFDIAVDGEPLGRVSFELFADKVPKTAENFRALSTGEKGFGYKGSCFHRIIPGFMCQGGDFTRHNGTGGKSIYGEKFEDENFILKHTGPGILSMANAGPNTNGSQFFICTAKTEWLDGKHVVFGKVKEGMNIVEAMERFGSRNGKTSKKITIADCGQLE
Method: This assay is to measure the ability of tested compounds in disruption of the KRAS G12C-BRAF complex at the cellular level, we established the NanoBit cellular assay in mammalian HEK293 (ATCC) cells. HEK293 cells were grown and maintained using DMEM medium (Thermo Fisher Scientific) with 10% fetal bovine serum and 1% penicillin/streptomycin. Both KRAS G12C and BRAF RBD were cloned into the NanoBit vectors ([…] vectors system, Promega) with the orientations SmBit-KRAS G12C and BRAF RBD-LgBit, respectively, and co-transfected into HEK293 cells. Cells were then selected with 100 μg/mL Hygromycin B (10687010, Thermo Fisher) and Blasticidin (5 μg/mL) for 4 weeks to get the stable cell pool. On the day of the assay, 75 nL of compound solution was presented in a 384-well assay plate as a 16-point 3-fold dilution starting from a final concentration of 30 μM in DMSO. Then cells were seeded at 10,000 cells/25 μL/well in a 384-well plate. After 3 hours of incubation, 6 μL of volume of Nano-Glo® Live Cell Substrate (Promega) was added into each well. Monitor luminescence using ultra384 model in Envision at 20 minutes. Compounds that facilitate disruption of the KRAS G12C-BRAF RBD complex were identified as those eliciting a decrease of luminescence relative to DMSO control wells.

KRAS G12C-BRAF complex [3] = molecular target: T1, KRAS G12C-BRAF complex; experiment: KRAS-BRAF with CYPA (500 nM) interaction assay (TR-FRET), G12C; type: biochemical; settings: 3 hours
Method: (§3) Kras-BRAF with CYPA (500 nM) Interaction Assay In this example, TR-FRET was also used to measure the compound or compound-CYPA dependent disruption of the KRAS G12C-BRAF complex. This protocol was also used to measure disruption of KRAS G12D or KRAS G12V binding to BRAF by a compound of the invention, respectively. […] TR-FRET signal was read on a […] microplate reader (Ex320 nm, Em 665/615 nm). Compounds that facilitate disruption of the KRAS-BRAF complex were identified as those eliciting a decrease in the TR-FRET ratio relative to DMSO control wells.

[4] = molecular target: KRAS G12D binding to BRAF (Homo sapiens, UniProt P01116+P62937, G12D); experiment: KRAS-BRAF with CYPA (500 nM) interaction assay (TR-FRET), G12D; type: biochemical; settings: 3 hours
Sequence of KRAS G12D binding to BRAF (P01116 1-188 isoform P01116-2 G12D): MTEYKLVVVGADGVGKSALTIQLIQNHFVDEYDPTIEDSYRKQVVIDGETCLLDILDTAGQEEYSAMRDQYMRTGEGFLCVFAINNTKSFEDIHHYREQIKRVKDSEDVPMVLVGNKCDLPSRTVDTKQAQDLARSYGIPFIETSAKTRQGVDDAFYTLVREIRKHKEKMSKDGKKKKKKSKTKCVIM
Sequence of KRAS G12D binding to BRAF (P62937 whole entry): as the sequence (P62937 whole entry) above
Method: as §3

[5] = molecular target: KRAS G12V binding to BRAF (Homo sapiens, UniProt P01116+P62937, G12V); experiment: KRAS-BRAF with CYPA (500 nM) interaction assay (TR-FRET), G12V; type: biochemical; settings: 3 hours
Sequence of KRAS G12V binding to BRAF (P01116 1-188 isoform P01116-2 G12V): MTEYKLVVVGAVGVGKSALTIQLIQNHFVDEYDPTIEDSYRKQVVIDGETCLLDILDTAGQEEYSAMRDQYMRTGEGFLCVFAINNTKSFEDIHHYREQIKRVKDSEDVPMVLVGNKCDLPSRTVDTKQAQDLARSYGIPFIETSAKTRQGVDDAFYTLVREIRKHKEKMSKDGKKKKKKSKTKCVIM
Sequence of KRAS G12V binding to BRAF (P62937 whole entry): as the sequence (P62937 whole entry) above
Method: as §3

[6] = tested on: phosphorylation of ERK, KRAS G12C in NCI-H358 cells; experiment: pERK inhibition assay, G12C; type: cell-based, human; settings: Homo sapiens; NCI-H358, 4 hours of incubation
Method: (§4) This assay is to measure the ability of test compounds in inhibiting the phosphorylation of ERK, the downstream signaling of KRAS G12C in NCI-H358 cells, KRAS G12D in AGS cells, and KRAS G12V in SW620. NCI-H358 (ATCC-CRL5807) cells, AGS (ATCC-CRL-1739) cells, SW620 (ATCC-CCL-227) cells were all grown and maintained using RPMI-1640 medium (Thermo Fisher Scientific) with 10% fetal bovine serum and 1% penicillin/streptomycin. On the day prior to compound addition, cells were plated in tissue culture-treated 96 well plates (Corning-3699) at a density of 30,000 cell/well, 20,000 cell/well, 30,000 cell/well for NCI-H358, AGS and SW620 respectively, and allowed for attachment overnight. Diluted compounds were then added in a final concentration of 0.5% DMSO. After 4 hours of incubation, the medium was removed, 100 μL of 4% formaldehyde was added, and the assay plates were incubated at room temperature for 20 minutes. The plates were then washed once with phosphate buffered saline (PBS), and permeabilized with 100 μL of chilled methanol for 10 minutes. Non-specific antibody binding to the plates was blocked using 50 μL 1×BSA blocking buffer (Thermo-37520, 10-fold dilution by Phosphate-Buffered Saline Tween (PBST) for at least 1 hour at room temperature.
(§5) The amount of phosphor-ERK was determined using an antibody specific for phosphorylated form of ERK. Primary antibody (pERK, CST-4370, Cell Signaling Technology) was diluted 1:300 in blocking buffer, with 50 μL aliquoted to each well, and incubated overnight at 4° C. Cells was washed five times for 5 minutes with PBST. Secondary antibody (HRP-linked anti-rabbit IgG, CST-7074, Cell Signaling Technology) was diluted 1:1000 in blocking buffer, and 50 μL was added to each well and incubated 1-2 hrs at room temperature. Cells was washed 5 times for 5 minutes with PBST, 100 μL TMB ELISA substrate (abcam-ab171523) were added and gently shake for 20 minutes. 50 μL stop solution (abcam-ab171529) were added, and then read the signal (OD450) by EnVision.
(§6) IC50 was determined by fitting a 4-parameter sigmoidal concentration response model.

[7] = tested on: phosphorylation of ERK, KRAS G12D in AGS cells; experiment: pERK inhibition assay, G12D; type: cell-based, human; settings: Homo sapiens, 4 hours of incubation
Method: as §4, §5, §6

[8] = tested on: phosphorylation of ERK, KRAS G12V in SW620; experiment: pERK inhibition assay, G12V; type: cell-based, human; settings: Homo sapiens, SW-620; SW620, 4 hours of incubation
Method: as §4, §5, §6

IC50 [1] | IC50 (AGS cells (KRAS G12D)) | IC50 (SW620 cells (KRAS G12V)) | IC50 (KRAS G12C-BRAF complex [2]) | IC50 (KRAS G12C-BRAF complex [3]) | IC50 [4] | IC50 [5] | IC50 [6] | IC50 [7] | IC50 [8] | Compound
0.006 µM | 0.328 µM | 0.036 µM | 0.22 µM | 0.065 µM | > 10 µM | > 10 µM | 0.045 µM | 1.81 µM | 0.056 µM | CO[C@@H](C)c1ncc(N2CCN(C)CC2)cc1-c1c2c3cc(c(F)cc3n1CC(F)(F)F)-c1csc(n1)C[C@H](NC(=O)[C@H](C(C)C)N(C)C(=O)[C@H]1C[C@@H](C#Cc3ncc(C(F)(F)F)cn3)C1)C(=O)N1CCC[C@H](N1)C(=O)OCC(C)(C)C2 (atropisomer, axis not shown; (M)) [Example 13, cis-N-[(1S)-1-[[(7S,13S)-24-fluoro-(20M)-20-[2-[(1S)-1-methoxyethyl]-5-(4-methylpiperazin-1-yl)-3-pyridyl]-17,17-dimethyl-8,14-dioxo-21-(2,2,2-trifluoroethyl)-15-oxa-4-thia-9,21,27,28-tetrazapentacyclo[17.5.2.1^2,5.1^9,13.0^22,26]octacosa-1(25),2,5(28),19,22(26),23-hexaen-7-yl]carbamoyl]-2-methyl-propyl]-N-methyl-3-[2-[5-(trifluoromethyl)pyrimidin-2-yl]ethynyl]cyclobutanecarboxamide]
0.436 µM | > 5 µM | > 5 µM | 0.418 µM | 0.819 µM | 3.01 µM | 1.98 µM | 0.292 µM | 1.77 µM | 0.498 µM | CO[C@@H](C)c1ncc(N2CCN(C)CC2)cc1-c1c2c3cc(c(F)cc3n1CC(F)(F)F)-c1csc(n1)C[C@H](NC(=O)[C@H](C(C)C)N(C)C(=O)[C@H]1CC[C@H](C#CC(F)(F)F)CC1)C(=O)N1CCC[C@H](N1)C(=O)OCC(C)(C)C2 (atropisomer, axis not shown; (M)) [Example 9, trans-N-[(1S)-1-[[(7S,13S)-24-fluoro-(20M)-20-[2-[(1S)-1-methoxyethyl]-5-(4-methylpiperazin-1-yl)-3-pyridyl]-17,17-dimethyl-8,14-dioxo-21-(2,2,2-trifluoroethyl)-15-oxa-4-thia-9,21,27,28-tetrazapentacyclo[17.5.2.1^2,5.1^9,13.0^22,26]octacosa-1(25),2,5(28),19,22(26),23-hexaen-7-yl]carbamoyl]-2-methyl-propyl]-N-methyl-4-(3,3,3-trifluoroprop-1-ynyl)cyclohexanecarboxamide]
0.078 µM | 0.876 µM | > 5 µM | 0.12 µM | > 10 µM | 1.91 µM | 1.48 µM | 0.048 µM | 0.152 µM | 0.065 µM | CO[C@@H](C)c1ncc(N2CCN(C)CC2)cc1-c1c2c3cc(c(F)cc3n1CC(F)(F)F)-c1csc(n1)C[C@H](NC(=O)[C@H](C(C)C)N(C)C(=O)[C@H]1CC[C@@H](C#CC(F)(F)F)CC1)C(=O)N1CCC[C@H](N1)C(=O)OCC(C)(C)C2 (atropisomer, axis not shown; (M)) [Example 10, cis-N-[(1S)-1-[[(7S,13S)-24-fluoro-(20M)-20-[2-[(1S)-1-methoxyethyl]-5-(4-methylpiperazin-1-yl)-3-pyridyl]-17,17-dimethyl-8,14-dioxo-21-(2,2,2-trifluoroethyl)-15-oxa-4-thia-9,21,27,28-tetrazapentacyclo[17.5.2.1^2,5.1^9,13.0^22,26]octacosa-1(25),2,5(28),19,22(26),23-hexaen-7-yl]carbamoyl]-2-methyl-propyl]-N-methyl-4-(3,3,3-trifluoroprop-1-ynyl)cyclohexanecarboxamide]
0.166 µM | 3.34 µM | 0.653 µM | 0.075 µM | 0.24 µM | > 10 µM | 2.25 µM | 0.221 µM | > 10 µM | 0.198 µM | CO[C@@H](C)c1ncc(N2CCN(C)CC2)cc1-c1c2c3cc(c(F)cc3n1CC(F)(F)F)-c1csc(n1)C[C@H](NC(=O)[C@@H](CC(=O)N1CC(C#CC(F)(F)F)C1)C(C)C)C(=O)N1CCC[C@H](N1)C(=O)OCC(C)(C)C2 [Example 19, (2S)—N-[(7S,13S)-24-fluoro-(20M)-20-[2-[(1S)-1-methoxyethyl]-5-(4-methylpiperazin-1-yl)-3-pyridyl]-17,17-dimethyl-8,14-dioxo-21-(2,2,2-trifluoroethyl)-15-oxa-4-thia-9,21,27,28-tetrazapentacyclo[17.5.2.1^2,5.1^9,13.0^22,26]octacosa-1(25),2,5(28),19,22(26),23-hexaen-7-yl]-2-isopropyl-4-oxo-4-[3-(3,3,3-trifluoroprop-1-ynyl)azetidin-1-yl]butanamide]
